In ChEMBL document CHEMBL1152050, “Asymmetric synthesis of enantiomerically pure 4-fluoroalkyl-2,3-dideoxy nucleosides” (Bioorg Med Chem Lett, 1994):

Key:
[1] = tested on: MT4; test: Antiviral activity expressed as ability to prevent the HIV-induced cytopathic effect in MT-4 cells at a dose of 100 ug/ml; No significant activity; type: functional, cell-based; conditions: Homo sapiens
[2] = tested on: MT4; test: Cytotoxicity by the MTT assay in MT-4 cells at a dose of 100 ug/ml; No significant activity; type: functional, cell-based; conditions: Homo sapiens

SMILES	Activity [1]	Activity [2]
Cc1cn([C@@H]2CCC(CO)(CF)O2)c(=O)[nH]c1=O (single isomer, unassigned)	No significant activity	No significant activity
Cc1cn(C2CC[C@](CO)(CF)O2)c(=O)[nH]c1=O (single isomer, unassigned)	No significant activity	No significant activity
